Read-outs that look alike come from different tables or passages of the source. Blank lines part the entries; values can stand above or below the compound they belong to.
Columns and labels:
[1] = target: T1, baculovirus-expressed ALK (Homo sapiens, UniProt Q9UM73); assay: ALK Kinase Assay (ELISA-type, time-resolved fluorescence); assay type: biochemical
T1 construct: host or cells: baculovirus expression system
How it was run: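 Substrate coating: phospholipase C-γ, 10 μg/mL in TBS. Kinase step: 30 ng/ml ALK, 15 min, 37° C. Detection and analysis: Eu-N1 PT66 antibody, with IC50 fitted as a sigmoidal variable-slope dose-response curve.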

[2] = target: T2, c-Met (cytoplasmic domain) (Homo sapiens, UniProt P08581); assay: c-Met Kinase Assay (same methods as for ALK, with modifications); assay type: biochemical
T2 construct: 10 ng/mL c-Met (cytoplasmic domain, Invitrogen Corporation #PV3143); purchased Invitrogen Corporation PV3143
T2 sequence (P08581 956-1390 limits assumed): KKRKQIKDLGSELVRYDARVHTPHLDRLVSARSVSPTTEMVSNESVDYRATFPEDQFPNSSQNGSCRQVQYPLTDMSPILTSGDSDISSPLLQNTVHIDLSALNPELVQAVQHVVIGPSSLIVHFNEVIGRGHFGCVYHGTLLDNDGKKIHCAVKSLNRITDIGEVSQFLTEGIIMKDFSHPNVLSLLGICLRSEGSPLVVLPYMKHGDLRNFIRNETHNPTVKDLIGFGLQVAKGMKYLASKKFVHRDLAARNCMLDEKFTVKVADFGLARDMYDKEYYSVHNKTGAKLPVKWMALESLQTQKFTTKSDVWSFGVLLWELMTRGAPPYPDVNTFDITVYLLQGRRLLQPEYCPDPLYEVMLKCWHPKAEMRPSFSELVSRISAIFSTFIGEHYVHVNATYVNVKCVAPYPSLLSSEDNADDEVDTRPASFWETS
How it was run: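 This plate-based kinase format uses immobilized phospholipase C-γ as substrate, phosphorylated by c-Met cytoplasmic domain (10 ng/mL) at 37° C for 15 minutes.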

[3] = 1 μM ATP (Km level), 30 ng/ml ALK, 37° C., 15 minutes, read-out: ALK Activity (ALK kinase inhibition, IC50 class)
[4] = 1 μM ATP (Km level), 10 ng/mL c-Met, read-out: cMet Activity (c-Met kinase inhibition, IC50 class)
[5] = ALK kinase inhibition, 1 μM ATP (Km level), read-out: ALK Activity
[6] = c-Met kinase inhibition, 1 μM ATP (Km level), read-out: cMet Activity
[7] = ALK kinase inhibition, 1 μM ATP, read-out: ALK Activity
[8] = c-Met kinase inhibition, 1 μM ATP, read-out: cMet Activity
[9] = 1 μM ATP (Km level), read-out: ALK Activity (ALK Kinase Inhibition, IC50)
[10] = 1 μM ATP (Km level), read-out: cMet Activity (c-Met Kinase Inhibition, IC50)

T1 sequence (Q9UM73 19-1620): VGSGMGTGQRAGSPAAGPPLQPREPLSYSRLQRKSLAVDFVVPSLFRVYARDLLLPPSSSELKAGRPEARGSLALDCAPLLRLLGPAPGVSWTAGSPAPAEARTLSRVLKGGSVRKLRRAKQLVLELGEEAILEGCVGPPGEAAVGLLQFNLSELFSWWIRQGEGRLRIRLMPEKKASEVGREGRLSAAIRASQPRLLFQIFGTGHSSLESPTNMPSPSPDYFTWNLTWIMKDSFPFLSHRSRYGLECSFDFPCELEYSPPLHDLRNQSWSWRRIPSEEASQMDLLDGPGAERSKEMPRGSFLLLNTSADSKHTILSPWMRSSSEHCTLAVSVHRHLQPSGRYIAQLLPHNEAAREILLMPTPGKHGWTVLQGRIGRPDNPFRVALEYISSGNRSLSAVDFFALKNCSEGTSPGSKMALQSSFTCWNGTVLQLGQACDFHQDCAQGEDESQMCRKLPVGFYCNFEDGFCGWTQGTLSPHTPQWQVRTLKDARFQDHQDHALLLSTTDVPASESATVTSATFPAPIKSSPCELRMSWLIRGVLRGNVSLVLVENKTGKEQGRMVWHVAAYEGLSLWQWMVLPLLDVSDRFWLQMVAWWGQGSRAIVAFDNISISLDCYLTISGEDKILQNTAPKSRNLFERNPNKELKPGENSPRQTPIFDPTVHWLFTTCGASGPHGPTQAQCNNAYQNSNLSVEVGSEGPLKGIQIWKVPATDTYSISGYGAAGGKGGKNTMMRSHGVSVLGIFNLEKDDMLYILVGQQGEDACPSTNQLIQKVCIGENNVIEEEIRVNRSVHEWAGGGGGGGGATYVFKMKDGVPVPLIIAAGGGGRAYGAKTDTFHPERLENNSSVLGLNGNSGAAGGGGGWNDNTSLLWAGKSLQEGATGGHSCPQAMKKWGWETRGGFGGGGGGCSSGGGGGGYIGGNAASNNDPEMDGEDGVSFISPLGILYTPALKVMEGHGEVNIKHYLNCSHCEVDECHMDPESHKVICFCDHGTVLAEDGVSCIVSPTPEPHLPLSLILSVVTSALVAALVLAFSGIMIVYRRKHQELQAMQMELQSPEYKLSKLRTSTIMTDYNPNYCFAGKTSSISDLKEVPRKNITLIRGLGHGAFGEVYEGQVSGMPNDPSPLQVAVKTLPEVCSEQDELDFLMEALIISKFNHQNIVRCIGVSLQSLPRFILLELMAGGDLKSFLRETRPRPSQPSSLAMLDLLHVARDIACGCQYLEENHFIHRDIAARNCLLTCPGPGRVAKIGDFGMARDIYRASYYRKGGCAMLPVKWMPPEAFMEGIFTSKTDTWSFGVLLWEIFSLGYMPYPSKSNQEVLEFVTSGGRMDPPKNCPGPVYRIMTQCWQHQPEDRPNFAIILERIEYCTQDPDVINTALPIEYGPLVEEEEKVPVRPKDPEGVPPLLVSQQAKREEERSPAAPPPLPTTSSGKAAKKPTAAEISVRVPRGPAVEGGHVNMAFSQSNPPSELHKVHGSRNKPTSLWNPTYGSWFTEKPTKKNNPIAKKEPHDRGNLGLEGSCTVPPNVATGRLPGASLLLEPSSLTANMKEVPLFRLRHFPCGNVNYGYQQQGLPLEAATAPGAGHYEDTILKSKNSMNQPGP

SMILES: COc1cc2c(cc1Nc1ncc(Cl)c(NC3C4C=CC(C4)C3C(N)=O)n1)CCN(CC(=O)N(C)C)CC2 (stereo not drawn) [Example 260, (2-exo,3-exo)-3-[5-Chloro-2-(3-dimethylcarbamoylmethyl-8-methoxy-2,3,4,5-tetrahydro-1H-benzo[d]azepin-7-ylamino)-pyrimidin-4-ylamino]-bicyclo[2.2.1]hept-5-ene-2-carboxylic acid amide]
IC50 [1, 5]: < 100 nM | IC50 [2, 6]: > 10000 nM

SMILES: COc1cc2c(cc1Nc1ncc(Cl)c(Nc3ccccc3-n3cccn3)n1)CCN(CC(C)(F)F)CC2 [Example 825, 5-Chloro-N*2*-[3-(2,2-difluoro-propyl)-8-methoxy-2,3,4,5-tetrahydro-1H-benzo[d]azepin-7-yl]-N*4*-(2-pyrazol-1-yl-phenyl)-pyrimidine-2,4-diamine]
IC50 [1, 9]: 100 to 1000 nM | IC50 [2, 10]: > 10000 nM

SMILES: CCN1C(=O)CCCc2c1ccc(Nc1ncc(Cl)c(Nc3ccc(OC)cc3C(=O)OC(C)C)n1)c2OC [Example 608, 2-[5-Chloro-2-(1-ethyl-6-methoxy-2-oxo-2,3,4,5-tetrahydro-1H-benzo[b]azepin-7-ylamino)-pyrimidin-4-ylamino]-5-methoxy-benzoic acid isopropyl ester]
IC50 [1, 9]: 1000 to 10000 nM | IC50 [2, 10]: > 10000 nM

SMILES: CN1C(=O)CCCc2cc(Nc3ncc(Cl)c(Nc4c(F)cccc4C(=O)NCC#N)n3)ccc21 [Example 1045, 2-[5-Chloro-2-(1-methyl-2-oxo-2,3,4,5-tetrahydro-1H-benzo[b]azepin-7-ylamino)-pyrimidin-4-ylamino]-N-cyanomethyl-3-fluoro-benzamide]
IC50 [1, 3]: < 100 nM | IC50 [2, 4]: < 100 nM

SMILES: CNC(=O)c1ccccc1Nc1nc(Nc2ccc3c(c2)CN(CCOC(C)=O)CCS3)ncc1Cl [Example 527, Acetic acid 2-{2-[5-Chloro-4-(2-methylcarbamoyl-phenylamino)-pyrimidin-2-ylamino]-6,7-dihydro-9H-5-thia-8-aza-benzoylcyclohepten-8-yl}-ethyl ester]
IC50 [1, 9]: < 100 nM | IC50 [2, 10]: < 100 nM

SMILES: CNC(=O)c1cccc(Cl)c1Nc1nc(Nc2ccc3c(c2)C2CCC(C3)N2)ncc1Cl (stereo not shown) [Example 90, 2-[2-(12-Aza-tricyclo[7.2.1.0*2,7*]dodeca-2(7),3,5-trien-4-ylamino)-5-chloro-pyrimidin-4-ylamino]-3-chloro-N-methyl-benzamide]
IC50 [1, 5]: 100 to 1000 nM | IC50 [2, 6]: < 100 nM

SMILES: COc1ccc(Nc2ncc(Cl)c(Nc3ccccc3S(=O)(=O)C(C)C)n2)c2c1CCCC(N1CCOCC1)C2 (stereo not shown) [Example 946, 5-Chloro-N(2)-(4-methoxy-8-morpholin-4-yl-6,7,8,9-tetrahydro-5H-benzocyclohepten-1-yl)-N(4)-[2-(propane-2-sulfonyl)-phenyl]-pyrimidine-2,4-diamine]
IC50 [1, 9]: 100 to 1000 nM | IC50 [2, 10]: > 10000 nM

SMILES: COc1cc(N2CCN(C)CC2)ccc1Nc1nc(Nc2cccc3c2OCCCC3(C)C)ncc1Cl [Example 872, 5-Chloro-N*2*-(5,5-dimethyl-2,3,4,5-tetrahydro-benzo[b]oxepin-9-yl)-N*4*-[2-methoxy-4-(4-methyl-piperazin-1-yl)-phenyl]-pyrimidine-2,4-diamine]
IC50 [1, 9]: < 100 nM | IC50 [2, 10]: > 10000 nM

SMILES: COCCN1CCc2cc(Nc3ncc(Cl)c(Nc4ccccc4NS(C)(=O)=O)n3)c(OC)cc2CC1 [Example 242, N-(2-{5-Chloro-2-[8-methoxy-3-(2-methoxy-ethyl)-2,3,4,5-tetrahydro-1H-benzo[d]azepin-7-ylamino]-pyrimidin-4-ylamino}-phenyl)-methanesulfonamide]
IC50 [1, 5]: < 100 nM | IC50 [2, 6]: 1000 to 10000 nM

SMILES: CC1(C)CCC(=O)Nc2ccc(Nc3ncc(Cl)c(Nc4ccccc4-c4cc(=O)[nH]c(=O)[nH]4)n3)cc21 [Example 988, 6-{2-[5-Chloro-2-(5,5-dimethyl-2-oxo-2,3,4,5-tetrahydro-1H-benzo[b]azepin-7-ylamino)-pyrimidin-4-ylamino]-phenyl}-1H-pyrimidine-2,4-dione]
IC50 [1, 9]: 1000 to 10000 nM | IC50 [2, 10]: > 10000 nM

Now from value to compound:

IC50 [1, 3]: < 100 nM | IC50 [2, 4]: > 10000 nM
SMILES: COc1cc2c(cc1Nc1ncc(Cl)c(N[C@@H]3CCCC[C@H]3NS(C)(=O)=O)n1)CCN(C(CF)CF)CC2 [Example 1392, ((1R,2R)-2-{5-Chloro-2-[3-(2-fluoro-1-fluoromethyl-ethyl)-8-methoxy-2,3,4,5-tetrahydro-1H-benzo[d]azepin-7-ylamino]-pyrimidin-4-ylamino}-cyclohexyl)-methanesulfonamide]

IC50 [1, 3]: < 100 nM | IC50 [2, 4]: 100 to 1000 nM
SMILES: CNC(=O)c1cc(-c2ccc(C#N)cc2)cc(F)c1Nc1nc(Nc2ccc3c(c2)NC(=O)CCC3)ncc1Cl [Example 1420, 4-[5-Chloro-2-(2-oxo-2,3,4,5-tetrahydro-1H-benzo[b]azepin-8-ylamino)-pyrimidin-4-ylamino]-4′-cyano-5-fluoro-biphenyl-3-carboxylic acid methyl amide]

IC50 [1, 3]: < 100 nM | IC50 [2, 4]: 100 to 1000 nM
SMILES: CN1C(=O)CCC(C)(C)c2cc(Nc3ncc(Cl)c(Nc4ccccc4-n4cccn4)n3)ccc21 [Example 1323, 7-[5-Chloro-4-(2-pyrazol-1-yl-phenylamino)-pyrimidin-2-ylamino]-1,5,5-trimethyl-1,3,4,5-tetrahydro-benzo[b]azepin-2-one]

IC50 [1, 7]: 100 to 1000 nM | IC50 [2, 8]: < 100 nM
SMILES: C#CCNC(=O)c1cccc(F)c1Nc1nc(Nc2ccc3c(c2)N(C(C)=O)CCCO3)ncc1Cl [Example 1713, 2-[2-(9-Acetyl-6,7,8,9-tetrahydro-5-oxa-9-aza-benzocyclohepten-2-ylamino)-5-chloro-pyrimidin-4-ylamino]-3-fluoro-N-prop-2-ynyl-benzamide]

IC50 [1, 3]: < 100 nM | IC50 [2, 4]: > 10000 nM
SMILES: COc1cc2c(cc1Nc1ncc(Cl)c(N[C@@H]3CCCC[C@H]3NS(C)(=O)=O)n1)CCN(CCS(C)(=O)=O)CC2 [Example 1122, N-((1R,2R)-2-{5-Chloro-2-[3-(2-methanesulfonyl-ethyl)-8-methoxy-2,3,4,5-tetrahydro-1H-benzo[d]azepin-7-ylamino]-pyrimidin-4-ylamino}-cyclohexyl)-methanesulfonamide]

IC50 [1, 7]: < 100 nM | IC50 [2, 8]: 1000 to 10000 nM
SMILES: COc1cc2c(cc1Nc1ncc(Cl)c(Nc3ccccc3S(=O)(=O)N3CC[C@@H](O)C3)n1)CCN(CC(C)(C)O)CC2 [Example 1561, (R)-1-(2-{5-Chloro-2-[3-(2-hydroxy-2-methyl-propyl)-8-methoxy-2,3,4,5-tetrahydro-1H-3-benzazepin-7-ylamino]-pyrimidin-4-ylamino}-benzenesulfonyl)-pyrrolidin-3-ol]

IC50 [1, 7]: < 100 nM | IC50 [2, 8]: < 100 nM
SMILES: CN1CCN(C2CCN(C3CCc4ccc(Nc5ncc(Cl)c(Nc6c(F)cccc6OCC#N)n5)cc4CC3)CC2)CC1 (stereo not shown) [Example 1483, [2-(5-Chloro-2-{7-[4-(4-methyl-piperazin-1-yl)-piperidin-1-yl]-6,7,8,9-tetrahydro-5H-benzocyclohepten-2-ylamino}-pyrimidin-4-ylamino)-3-fluoro-phenoxy]-acetonitrile]

IC50 [1, 3]: < 100 nM | IC50 [2, 4]: > 10000 nM
SMILES: CNC(=O)CN1CCc2cc(Nc3ncc(Cl)c(Nc4cc(Cl)ccc4OC)n3)c(OC)cc2CC1 [Example 1118, 2-{7-[5-Chloro-4-(5-chloro-2-methoxy-phenylamino)-pyrimidin-2-ylamino]-8-methoxy-1,2,4,5-tetrahydro-benzo[d]azepin-3-yl}-N-methyl-acetamide]

IC50 [1, 3]: > 10000 nM | IC50 [2, 4]: 100 to 1000 nM
SMILES: COc1cccc(C(=O)NCC#N)c1Nc1nc(Nc2ccc3c(c2)CCCC(=O)N3C)ncc1Cl [Example 1065, 2-[5-Chloro-2-(1-methyl-2-oxo-2,3,4,5-tetrahydro-1H-benzo[b]azepin-7-ylamino)-pyrimidin-4-ylamino]-N-cyanomethyl-3-methoxy-benzamide]

IC50 [1, 3]: < 100 nM | IC50 [2, 4]: > 10000 nM
SMILES: COc1cc2c(cc1Nc1ncc(Cl)c(N[C@@H]3CCCC[C@H]3NS(C)(=O)=O)n1)CCC(N1CCN(C)CC1)CC2 (single isomer, unassigned) [Example 1101]

IC50 [1, 3]: < 100 nM | IC50 [2, 4]: > 10000 nM
SMILES: COc1cc2c(cc1Nc1ncc(Cl)c(N[C@H]3[C@@H](C(N)=O)[C@@H]4C=C[C@H]3C4)n1)CCN(CC(=O)N1CCCC1)CC2 [Example 1159, (1S,2S,3R,4R)-3-{5-Chloro-2-[8-methoxy-3-(2-oxo-2-pyrrolidin-1-yl-ethyl)-2,3,4,5-tetrahydro-1H-benzo[d]azepin-7-ylamino]-pyrimidin-4-ylamino}-bicyclo[2.2.1]hept-5-ene-2-carboxylic acid amide]

IC50 [1, 3]: < 100 nM | IC50 [2, 4]: > 10000 nM
SMILES: COc1cc2c(cc1Nc1ncc(Cl)c(Nc3ccccc3S(=O)(=O)N(C)C)n1)CCN(C(CF)CF)CC2 [Example 1393, {5-Chloro-2-[3-(2-fluoro-1-fluoromethyl-ethyl)-8-methoxy-2,3,4,5-tetrahydro-1H-benzo[d]azepin-7-ylamino]-pyrimidin-4-ylamino}-N,N-dimethyl-benzenesulfonamide]

IC50 [1, 7]: 100 to 1000 nM | IC50 [2, 8]: 100 to 1000 nM
SMILES: CNC(=O)c1scc(C)c1Nc1nc(Nc2ccc3c(c2)NC(=O)CN(C(C)=O)C3)ncc1Cl [Example 1850, 3-[2-(4-Acetyl-2-oxo-2,3,4,5-tetrahydro-1H-benzo[e][1,4]diazepin-8-ylamino)-5-chloro-pyrimidin-4-ylamino]-4-methyl-thiophene-2-carboxylic acid methylamide]

Source: patent publication US8148391B2 (Cephalon, Inc., priority 2006, dated 2012)
